Measurements reported in ChEMBL document CHEMBL1201862, “PubChem BioAssay data set” (2004).
Values belong to the molecule of their own block, whether it stands above or below them. The source made the active and inactive calls.

Columns and labels:
[1] = target: T1, Probable nicotinate-nucleotide adenylyltransferase (Staphylococcus aureus (strain N315), UniProt P65502); type: functional, Staphylococcus aureus subsp. aureus N315;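 on IC50 Mean: confirmatory dose-response retesting of NadD inhibitor hits first found in an ultra-high-throughput screen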
[2] = target: T1, Probable nicotinate-nucleotide adenylyltransferase; type: functional, Staphylococcus aureus subsp. aureus N315; conditions: read-out: IC50_Mean
[3] = target: T2, Corticotropin-releasing factor receptor 2/Corticotropin-releasing factor-binding protein (Homo sapiens, UniProt P24387+Q13324); experiment: activators of CRF receptor 2 with binding protein – uHTS hits, confirmation (AID 602473); type: functional; conditions: read-out: EC50_Mean
T2 sequence (Q13324 whole entry): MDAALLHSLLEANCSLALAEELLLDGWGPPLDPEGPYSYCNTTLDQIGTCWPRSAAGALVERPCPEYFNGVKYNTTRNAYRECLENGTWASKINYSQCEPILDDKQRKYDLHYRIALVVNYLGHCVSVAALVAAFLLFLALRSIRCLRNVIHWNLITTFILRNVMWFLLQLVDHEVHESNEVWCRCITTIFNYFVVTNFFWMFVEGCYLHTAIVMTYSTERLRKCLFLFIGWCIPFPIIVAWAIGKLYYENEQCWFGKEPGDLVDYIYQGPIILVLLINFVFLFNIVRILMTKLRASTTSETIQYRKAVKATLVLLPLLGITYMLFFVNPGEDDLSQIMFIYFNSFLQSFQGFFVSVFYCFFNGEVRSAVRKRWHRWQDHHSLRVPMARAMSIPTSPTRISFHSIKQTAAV
T2 sequence (P24387 whole entry): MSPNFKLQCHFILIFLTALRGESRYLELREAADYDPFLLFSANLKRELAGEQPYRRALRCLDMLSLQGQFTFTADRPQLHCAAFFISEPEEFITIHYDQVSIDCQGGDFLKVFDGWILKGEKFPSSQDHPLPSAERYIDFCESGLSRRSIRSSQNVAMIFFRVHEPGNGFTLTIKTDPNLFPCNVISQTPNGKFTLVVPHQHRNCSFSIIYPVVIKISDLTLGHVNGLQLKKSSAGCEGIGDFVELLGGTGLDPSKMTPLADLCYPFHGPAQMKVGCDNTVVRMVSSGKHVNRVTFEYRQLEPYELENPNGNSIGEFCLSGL

[4] = target: T3, Rac GTPase-activating protein 1 (Homo sapiens, UniProt Q9H0H5); experiment: blockers of MgcRacGAP-driven Rac1 GTP hydrolysis – biochemical, ADP Hunter fluorescence, primary and confirmatory, confirmation (AID 624330); type: functional
T3 sequence (Q9H0H5 whole entry): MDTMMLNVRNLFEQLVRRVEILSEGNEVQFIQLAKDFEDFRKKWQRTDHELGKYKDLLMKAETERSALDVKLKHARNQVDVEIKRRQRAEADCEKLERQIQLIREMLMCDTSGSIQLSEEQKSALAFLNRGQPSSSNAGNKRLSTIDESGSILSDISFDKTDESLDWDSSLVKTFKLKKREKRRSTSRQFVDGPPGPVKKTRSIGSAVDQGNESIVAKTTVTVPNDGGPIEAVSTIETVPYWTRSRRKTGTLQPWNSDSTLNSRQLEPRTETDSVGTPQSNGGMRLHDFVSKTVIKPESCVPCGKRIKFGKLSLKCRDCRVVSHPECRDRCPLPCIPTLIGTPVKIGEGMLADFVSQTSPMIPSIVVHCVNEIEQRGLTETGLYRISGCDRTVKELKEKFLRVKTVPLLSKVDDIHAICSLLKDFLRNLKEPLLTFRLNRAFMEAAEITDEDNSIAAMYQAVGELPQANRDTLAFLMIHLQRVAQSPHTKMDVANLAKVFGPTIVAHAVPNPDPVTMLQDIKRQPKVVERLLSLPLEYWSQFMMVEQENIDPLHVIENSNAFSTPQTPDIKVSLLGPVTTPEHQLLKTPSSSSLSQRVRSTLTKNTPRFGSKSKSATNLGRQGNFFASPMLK

[5] = blockers of CRF-binding protein–CRF-R2 complex – cell-based, uHTS hits, 384-well, dose response (AID 651639); type: functional, Homo sapiens; conditions: read-out: IC50_Mean
[6] = target: T2, Corticotropin-releasing factor receptor 2/Corticotropin-releasing factor-binding protein; experiment: Dose Response confirmation of uHTS hits for small molecule antagonists of the CRF-binding protein and CRF-R2 receptor complex.; type: functional; conditions: read-out: IC50_Mean
[7] = target: Photoreceptor-specific nuclear receptor (Homo sapiens, UniProt Q9Y5X4); type: functional, cell-based;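 further: CHO-S cells with Gal4-NCOR and VP16-NR2E3 two-hybrid luciferase reporter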
[8] = target: T4, Methionyl-tRNA synthetase, putative (Trypanosoma brucei brucei, UniProt Q38C91); type: functional, Trypanosoma brucei brucei strain 927/4 GUTat10.1
T4 sequence (Q38C91 whole entry): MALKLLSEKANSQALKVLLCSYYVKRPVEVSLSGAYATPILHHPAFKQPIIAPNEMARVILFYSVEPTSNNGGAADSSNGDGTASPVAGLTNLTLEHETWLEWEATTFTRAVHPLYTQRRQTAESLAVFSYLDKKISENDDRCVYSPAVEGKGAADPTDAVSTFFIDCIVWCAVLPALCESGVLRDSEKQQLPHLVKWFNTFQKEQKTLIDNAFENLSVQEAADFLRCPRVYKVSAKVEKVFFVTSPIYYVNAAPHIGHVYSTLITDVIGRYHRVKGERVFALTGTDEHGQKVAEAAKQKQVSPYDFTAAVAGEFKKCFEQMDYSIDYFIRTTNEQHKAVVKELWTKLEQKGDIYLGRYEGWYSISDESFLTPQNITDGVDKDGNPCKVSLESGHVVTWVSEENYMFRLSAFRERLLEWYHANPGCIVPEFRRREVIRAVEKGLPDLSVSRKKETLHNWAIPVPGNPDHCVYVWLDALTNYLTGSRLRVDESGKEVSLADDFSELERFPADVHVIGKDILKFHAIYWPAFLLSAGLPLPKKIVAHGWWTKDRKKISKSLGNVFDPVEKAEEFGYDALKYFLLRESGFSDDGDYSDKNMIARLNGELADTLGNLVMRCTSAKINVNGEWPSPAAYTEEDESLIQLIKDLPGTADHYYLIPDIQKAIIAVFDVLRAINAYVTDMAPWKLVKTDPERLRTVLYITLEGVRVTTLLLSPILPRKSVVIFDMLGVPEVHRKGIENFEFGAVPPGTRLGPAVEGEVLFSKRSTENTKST

[9] = target: T4, Methionyl-tRNA synthetase, putative; type: functional, Trypanosoma brucei brucei strain 927/4 GUTat10.1; remark: listed apart in the source
[10] = Counterscreen for inhibitors of Trypanosoma brucei methionyl tRNA synthetase (MetRS): Luminescence-based cell-based high throughput dose response assay to identify compounds that are cytotoxic to Jurkat human T lymphocyte cells.; type: functional
[11] = viability of uninfected HEp-2 cells – cell-based, HTS, cytotoxicity control for RSV inhibitor project, dose response (AID 2410); type: functional; conditions: human respiratory syncytial virus
[12] = target: Heat shock protein HSP 90-alpha (Homo sapiens, UniProt P07900); type: functional, organism-based
[13] = target: T5, ATP-dependent translocase ABCB1 (Homo sapiens, UniProt P08183); experiment: inhibition of BCRP-mediated JC-1 efflux – Ig-MXP3 cells, flow cytometry, set 2, dose response (AID 504566); type: functional; conditions: read-out: EC50_MICROM_;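 further: flow cytometry median green fluorescence of retained JC-1 dye; potency of efflux pump inhibition measured as rising substrate retention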
[14] = target: T5, ATP-dependent translocase ABCB1; experiment: P-gp JC-1 efflux blockade concentration-response – Jurkat-DNR cells, flow cytometry, set 2, dose response (AID 504569); type: functional; conditions: read-out: EC50_MICROM_;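 further: potency of pump inhibitors that raise cellular JC-1 green fluorescence up to the nicardipine level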
[15] = target: Nuclear receptor subfamily 5 group A member 2 (Homo sapiens, UniProt O00482); type: functional, cell-based;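 further: HEK293T cells transfected with LRH-1 and a StAR promoter luciferase reporter; potency for inhibitors that lower LRH-1 driven reporter light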
[16] = nonselective StAR promoter luciferase inhibitors – cell-based, luminescence, luciferase reporter, counter-screen for LRH-1 inverse agonist project, dose response (AID 651969); type: functional
[17] = target: Steroidogenic factor 1 (Homo sapiens, UniProt Q13285); experiment: Counterscreen for inverse agonists of the liver receptor homolog-1 (LRH-1; NR5A2): Luminescence-based cell-based high throughput dose response assay to identify inverse agonists of the Steroidogenic Factor 1 Nuclear Receptor (SF1; NR5A1).; type: functional
[18] = target: T6, Low molecular weight phosphotyrosine protein phosphatase (Homo sapiens, UniProt P24666); type: functional; conditions: read-out: IC50_Mean
T6 sequence (P24666 whole entry): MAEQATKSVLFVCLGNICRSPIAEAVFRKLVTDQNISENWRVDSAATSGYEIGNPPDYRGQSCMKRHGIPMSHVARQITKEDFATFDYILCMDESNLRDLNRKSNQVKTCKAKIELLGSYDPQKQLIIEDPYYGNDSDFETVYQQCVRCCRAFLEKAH

[19] = target: T6, Low molecular weight phosphotyrosine protein phosphatase; type: functional; conditions: read-out: IC50_Mean; remark: listed apart in the source
[20] = target: T7, Short transient receptor potential channel 4 (Mus musculus, UniProt Q9QUQ5); experiment: block of DAMGO-driven TRPC4 calcium entry – cell-based, HEK293 TRPC4/mu-opioid, Fluo-4 calcium, dose response (AID 434942); type: functional;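 further: potency of inhibitors blocking the TRPC4 calcium response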
T7 sequence (Q9QUQ5 whole entry): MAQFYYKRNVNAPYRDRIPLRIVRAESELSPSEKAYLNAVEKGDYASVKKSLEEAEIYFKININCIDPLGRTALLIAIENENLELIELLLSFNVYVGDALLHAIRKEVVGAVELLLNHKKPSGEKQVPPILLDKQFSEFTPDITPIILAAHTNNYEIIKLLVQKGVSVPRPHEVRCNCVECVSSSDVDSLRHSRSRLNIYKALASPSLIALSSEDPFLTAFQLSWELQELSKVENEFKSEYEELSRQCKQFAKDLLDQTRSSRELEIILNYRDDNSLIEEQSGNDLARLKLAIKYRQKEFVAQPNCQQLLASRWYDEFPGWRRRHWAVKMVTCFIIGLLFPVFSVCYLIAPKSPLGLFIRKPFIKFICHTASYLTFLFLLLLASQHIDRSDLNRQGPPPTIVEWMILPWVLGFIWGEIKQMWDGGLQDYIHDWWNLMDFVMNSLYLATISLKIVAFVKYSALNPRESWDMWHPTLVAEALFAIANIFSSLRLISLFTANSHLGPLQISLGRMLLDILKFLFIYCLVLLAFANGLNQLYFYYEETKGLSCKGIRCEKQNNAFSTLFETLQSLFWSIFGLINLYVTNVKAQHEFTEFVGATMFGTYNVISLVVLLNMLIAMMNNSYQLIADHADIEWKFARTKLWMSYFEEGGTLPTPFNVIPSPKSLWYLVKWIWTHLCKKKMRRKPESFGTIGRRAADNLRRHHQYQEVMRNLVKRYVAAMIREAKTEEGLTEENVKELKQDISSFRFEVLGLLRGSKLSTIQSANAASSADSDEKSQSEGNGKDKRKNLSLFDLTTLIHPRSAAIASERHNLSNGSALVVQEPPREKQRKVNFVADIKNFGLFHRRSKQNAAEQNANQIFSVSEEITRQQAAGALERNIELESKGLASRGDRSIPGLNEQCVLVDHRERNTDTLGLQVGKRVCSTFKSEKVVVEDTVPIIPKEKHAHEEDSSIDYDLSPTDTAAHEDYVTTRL

T5 sequence (P08183 whole entry): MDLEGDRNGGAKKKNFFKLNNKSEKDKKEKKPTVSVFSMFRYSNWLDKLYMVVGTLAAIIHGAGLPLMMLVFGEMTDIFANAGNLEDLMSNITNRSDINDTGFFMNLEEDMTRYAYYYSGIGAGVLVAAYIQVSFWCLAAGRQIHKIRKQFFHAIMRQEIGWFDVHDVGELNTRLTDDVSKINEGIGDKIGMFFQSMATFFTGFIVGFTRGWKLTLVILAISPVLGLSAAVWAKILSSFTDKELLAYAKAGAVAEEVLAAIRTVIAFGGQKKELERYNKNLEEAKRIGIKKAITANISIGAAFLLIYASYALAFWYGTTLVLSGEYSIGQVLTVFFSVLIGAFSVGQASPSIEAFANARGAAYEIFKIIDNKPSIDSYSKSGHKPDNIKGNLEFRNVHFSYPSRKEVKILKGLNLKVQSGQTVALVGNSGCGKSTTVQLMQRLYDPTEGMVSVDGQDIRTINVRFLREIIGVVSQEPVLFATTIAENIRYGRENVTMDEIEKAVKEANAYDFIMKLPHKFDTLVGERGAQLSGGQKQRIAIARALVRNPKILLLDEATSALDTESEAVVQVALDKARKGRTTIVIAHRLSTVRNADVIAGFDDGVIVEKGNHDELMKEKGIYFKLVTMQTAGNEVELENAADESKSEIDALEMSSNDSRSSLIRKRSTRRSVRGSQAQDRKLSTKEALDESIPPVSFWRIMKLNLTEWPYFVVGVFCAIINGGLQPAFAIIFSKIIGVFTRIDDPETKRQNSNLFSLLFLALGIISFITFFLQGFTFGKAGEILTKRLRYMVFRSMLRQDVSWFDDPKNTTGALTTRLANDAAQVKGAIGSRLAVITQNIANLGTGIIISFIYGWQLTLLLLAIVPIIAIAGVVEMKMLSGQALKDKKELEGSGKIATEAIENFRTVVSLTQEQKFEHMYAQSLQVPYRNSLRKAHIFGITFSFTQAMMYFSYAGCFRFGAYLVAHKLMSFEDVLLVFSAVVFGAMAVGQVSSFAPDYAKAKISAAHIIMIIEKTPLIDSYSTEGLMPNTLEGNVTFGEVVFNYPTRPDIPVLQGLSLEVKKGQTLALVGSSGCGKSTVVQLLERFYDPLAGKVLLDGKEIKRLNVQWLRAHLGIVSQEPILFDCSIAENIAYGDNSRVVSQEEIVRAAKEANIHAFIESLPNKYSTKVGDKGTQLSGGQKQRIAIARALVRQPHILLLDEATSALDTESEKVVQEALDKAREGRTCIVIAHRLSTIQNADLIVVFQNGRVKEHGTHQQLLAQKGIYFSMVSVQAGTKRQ
Sequence of Steroidogenic factor 1 (Q13285 whole entry): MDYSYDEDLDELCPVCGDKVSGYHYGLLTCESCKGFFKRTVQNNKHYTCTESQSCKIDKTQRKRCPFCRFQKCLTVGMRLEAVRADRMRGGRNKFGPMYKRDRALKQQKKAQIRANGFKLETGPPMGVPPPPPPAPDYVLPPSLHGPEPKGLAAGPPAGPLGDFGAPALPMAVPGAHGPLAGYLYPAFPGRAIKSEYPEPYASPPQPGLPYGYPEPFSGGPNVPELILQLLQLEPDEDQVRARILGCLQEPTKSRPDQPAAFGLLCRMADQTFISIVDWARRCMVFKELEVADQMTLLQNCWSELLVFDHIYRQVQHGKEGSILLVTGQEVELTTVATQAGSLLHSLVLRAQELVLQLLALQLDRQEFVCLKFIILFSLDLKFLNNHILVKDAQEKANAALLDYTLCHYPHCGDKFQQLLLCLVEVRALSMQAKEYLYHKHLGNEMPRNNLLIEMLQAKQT
Sequence of Photoreceptor-specific nuclear receptor (Q9Y5X4 whole entry, the tested form may be a part): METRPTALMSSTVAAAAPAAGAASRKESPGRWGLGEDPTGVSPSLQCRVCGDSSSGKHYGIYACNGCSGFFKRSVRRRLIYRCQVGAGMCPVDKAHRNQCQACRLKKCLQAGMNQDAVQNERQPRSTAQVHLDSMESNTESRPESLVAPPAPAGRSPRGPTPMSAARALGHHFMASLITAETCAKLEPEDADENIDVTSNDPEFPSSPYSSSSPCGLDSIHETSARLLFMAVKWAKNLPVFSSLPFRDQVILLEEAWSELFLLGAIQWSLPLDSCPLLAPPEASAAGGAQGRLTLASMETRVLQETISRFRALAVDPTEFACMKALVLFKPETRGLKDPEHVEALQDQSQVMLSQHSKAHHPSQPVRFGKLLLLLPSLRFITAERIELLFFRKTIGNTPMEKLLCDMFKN
Sequence of Nuclear receptor subfamily 5 group A member 2 (O00482 whole entry): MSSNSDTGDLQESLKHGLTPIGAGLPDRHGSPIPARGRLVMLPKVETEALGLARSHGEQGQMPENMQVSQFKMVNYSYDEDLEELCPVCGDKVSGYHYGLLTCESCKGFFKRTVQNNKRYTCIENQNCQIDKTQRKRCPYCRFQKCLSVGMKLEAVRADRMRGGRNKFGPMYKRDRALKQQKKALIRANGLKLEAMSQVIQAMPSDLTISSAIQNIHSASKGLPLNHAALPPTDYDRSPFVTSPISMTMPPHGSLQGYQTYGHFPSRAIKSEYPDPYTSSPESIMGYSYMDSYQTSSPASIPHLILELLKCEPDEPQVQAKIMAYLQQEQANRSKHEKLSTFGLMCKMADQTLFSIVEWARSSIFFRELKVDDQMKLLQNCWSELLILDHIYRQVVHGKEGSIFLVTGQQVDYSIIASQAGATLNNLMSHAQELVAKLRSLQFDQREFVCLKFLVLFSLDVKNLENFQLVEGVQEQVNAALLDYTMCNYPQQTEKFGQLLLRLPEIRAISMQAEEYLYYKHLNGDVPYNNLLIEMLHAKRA

Compound: Cc1ccc(-n2nc3c(c2NC(=O)/C=C\c2ccc4c(c2)OCO4)CSC3)cc1
IC50 [1]: 6.06 µM (active)
IC50 [2]: 20.4 µM (active)

Compound: COc1ccc(C)cc1NCc1cccc(OC)c1OC
EC50 [3]: > 53 µM (inactive)
IC50 [4]: 41.7 µM (active)
IC50 [5]: > 20 µM (inactive)
IC50 [6]: 39.6 µM (active)

Compound: O=C(NCc1nc2ccccc2[nH]1)C1=C[C@H](c2csc3ccccc23)C[C@H](OCc2ccc(CO)cc2)O1
IC50 [8]: 3.54 µM (active)
IC50 [9]: 1.58 µM (active)
IC50 [10]: 47.7 µM (inactive)
CC50 [11]: 41.1 µM (active)

Compound: O=C(CSc1nncc(O)n1)Nc1cccc([N+](=O)[O-])c1
IC50 [15]: 3.98 µM (active)
IC50 [16]: 13.7 µM (inactive)
IC50 [17]: 3.98 µM (active)

Compound: CC(=O)Nc1ncc(Cc2cc(Cl)ccc2Cl)s1
IC50 [15]: 1.33 µM (active)
IC50 [16]: 35.9 µM (inactive)
IC50 [17]: 2.14 µM (active)

Compound: CCC(C)Nc1nc(-c2ccc3c(c2)NC(=O)CO3)cs1 (stereo not drawn)
IC50 [18]: 10.5 µM (active)
IC50 [19]: 63.3 µM (inactive)

Compound: Cc1ccc(NC(=O)CNC(=O)c2cccc(C)c2)nc1
IC50 [7]: 3.75 µM (active)

The remaining lines, values ahead:

IC50 [1]: 23.5 µM (active)
IC50 [2]: 55.6 µM (active)
Compound: COC(=O)[C@H](CC(C)C)N1Cc2cc(OC)cc(OC)c2-c2ccccc2S1(=O)=O

IC50 [7]: 2.47 µM (active)
Compound: O=S(=O)(NC1CCCC1)c1ccc(S(=O)(=O)N2CCc3ccccc32)cc1

AC50 [12]: 7.93 µM (active)
EC50 [13]: 7.22 µM (active)
EC50 [14]: 3.25 µM (inactive)
Compound: Cc1cc(N2CCN(C(=O)c3ccco3)CC2)n2nc(C)c(-c3ccccc3)c2n1

EC50 [13]: 2.04 µM (active)
EC50 [14]: 3.04 µM (active)
Compound: COc1ccc(C(=O)N2CCN(c3cc(-c4ccccc4)nc4cc(-c5cccc(Cl)c5)nn34)CC2)cc1

IC50 [18]: 22.6 µM (inactive)
IC50 [19]: 7.12 µM (active)
Compound: Cc1cccc(-c2nc(NCCCN3CCOCC3)c3ccccc3n2)c1

EC50 [3]: 34.8 µM (active)
IC50 [5]: > 20 µM (inactive)
EC50 [20]: 4.73 µM (active)
IC50 [6]: 0.545 µM (active)
Compound: COc1ccc(/C=C2\SC(=S)N(C(Cc3ccccc3)C(=O)O)C2=O)cc1 (stereo not drawn)
